From the supplement of paper PMC10307832

Key:
Assay in all cases: relative viability (nuclei count vs DMSO), 5 days (fraction); higher = more cells survive
[1] = compound: C1=CC=C2C(=C1)N=C(S2)C(C#N)C3=NC(=NC=C3)NCCC4=CN=CC=C4 + O=C(CCCCCCC(=O)Nc1ccccc1)NO [Vorinostat] (partner 1 µM)
How it was run: (§1)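 Lung cancer cell lines in 1536-well plates were dosed by pin tool the day after seeding, either with one drug alone or with a fixed anchor-drug dose plus five library-drug doses (not always all listed) in √10 steps. After 5 days, cells were fixed and their nuclei stained in one step (final 0.05% Triton X-100, 1% formaldehyde, 1 ug/ml Hoechst), then counted on 4× images. Relative viability is the nuclei count in treated wells divided by that in vehicle wells. Values are medians of duplicate plates.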

[2] = compound: COc1cc2/c(=N/c3ccc(Br)cc3F)nc[nH]c2cc1OCC1CCN(C)CC1 [Vandetanib] + CC(C)C[C@H](NC(=O)[C@H](Cc1ccccc1)NC(=O)c1cnccn1)B(O)O [Bortezomib] (partner 0.002 µM)
How it was run: as §1

[3] = compound: C#Cc1cccc(Nc2ncnc3cc(OC)c(OCCCCCCC(=O)NO)cc23)c1 [CUDC-101] + Cc1nc(NC(=O)N2CCC[C@H]2C(N)=O)sc1-c1ccnc(C(C)(C)C(F)(F)F)c1 [Alpelisib] (partner 2 µM)
How it was run: as §1

[4] = compound: COc1cc2/c(=N/c3ccc(Br)cc3F)nc[nH]c2cc1OCC1CCN(C)CC1 [Vandetanib] + N=C(N)NC(=N)NCCc1ccccc1 [Phenformin] (partner 250 µM)
How it was run: as §1

Cell Line	relative viability ([1]; first compound 0.005 µM)	relative viability ([1]; first compound 0.01581 µM)	relative viability ([1]; first compound 0.05 µM)	relative viability ([1]; first compound 0.1581 µM)	relative viability ([1]; first compound 0.5 µM)	relative viability ([2]; first compound 0.02 µM)	relative viability ([2]; first compound 0.06325 µM)	relative viability ([2]; first compound 0.2 µM)	relative viability ([2]; first compound 0.6325 µM)	relative viability ([2]; first compound 2 µM)	relative viability ([3]; first compound 0.01 µM)	relative viability ([3]; first compound 0.03162 µM)	relative viability ([3]; first compound 0.1 µM)	relative viability ([3]; first compound 0.3162 µM)	relative viability ([3]; first compound 1 µM)	relative viability ([4]; first compound 0.02 µM)	relative viability ([4]; first compound 0.06325 µM)	relative viability ([4]; first compound 0.2 µM)	relative viability ([4]; first compound 0.6325 µM)	relative viability ([4]; first compound 2 µM)
HARA	0.663	0.718	0.559	0.59	0.614	1.17	1.07	0.937	1.07	1.05	0.752	0.661	0.583	0.54	0.225	0.471	0.447	0.44	0.381	0.351
BEN	0.496	0.58	0.548	0.643	0.577	0.875	0.714	0.83	0.919	0.861	1.21	0.887	1.17	0.848	0.737	0.266	0.278	0.279	0.292	0.262
LC-2-ad	0.621	0.704	0.676	0.823	0.612	0.708	0.984	0.769	0.884	0.322	0.896	0.908	0.844	0.73	0.433	0.615	0.512	0.548	0.475	0.305
NCI-H2009	0.727	0.677	0.729	0.735	0.738	0.895	0.931	1.06	0.996	1.21	1.13	1.1	1.14	1.07	1.04	0.495	0.462	0.416	0.443	0.361
NCI-H2085	0.726	0.737	0.781	0.826	0.903	1.08	1.02	1.02	1.09	1.04	0.957	1.01	0.925	1.01	0.868	0.769	0.674	0.649	0.668	0.595
NCI-H1666	0.959	0.922	1.07	1.04	1	0.849	0.814	0.712	0.831	0.786	0.958	0.949	1.05	0.974	0.498	0.541	0.559	0.585	0.586	0.562
NCI-H1993	0.66	0.717	0.638	0.837	0.501	1.03	0.905	1.04	0.807	0.719	0.742	0.751	0.766	0.671	0.639	0.523	0.506	0.554	0.605	0.53
NCI-H1437	0.896	0.871	0.813	0.824	0.755	0.486	0.56	0.47	0.506	0.398	1.04	0.886	0.988	0.983	0.679	0.271	0.3	0.345	0.272	0.299
ABC-1	1.13	–	1.03	1.33	0.985	0.304	0.3	0.287	0.406	0.244	1.15	1.07	0.819	0.609	0.572	0.248	0.205	0.256	0.275	0.266
NCI-H727	1.38	1.08	1.1	1.38	1.37	0.791	0.657	0.783	0.856	0.872	0.59	0.478	0.698	0.595	0.295	0.565	0.468	0.712	0.283	0.448
PC-3 [JPC-3]	0.864	–	0.843	0.991	0.737	0.828	0.738	0.646	0.734	0.431	1.04	0.999	0.775	0.683	0.307	0.471	0.466	0.496	0.334	0.331
NCI-H1355	0.596	0.625	0.649	0.67	0.564	1.22	1.18	1.16	1.22	1.27	0.873	0.738	1.02	0.807	0.566	0.436	0.461	0.431	0.448	0.406
HCC-827	0.675	0.931	0.838	1.07	0.922	1.06	1.02	1.04	0.795	0.495	0.958	0.27	0.224	0.187	0.179	0.441	0.367	0.319	0.157	0.165
NCI-H2405	0.82	0.938	0.953	1.15	0.727	0.96	0.9	0.985	0.948	1	0.952	0.574	0.87	1.22	0.603	0.376	0.302	0.374	0.39	0.202
NCI-H650	0.389	0.392	0.499	0.488	0.393	0.757	0.877	0.705	0.862	0.596	1.19	1.06	1.29	1.17	0.885	0.464	0.448	–	0.472	0.364
HCC-366	0.336	0.361	0.385	0.519	0.365	1.05	0.983	0.867	0.909	1.02	0.555	0.197	0.437	0.547	0.337	0.596	0.603	0.62	0.586	0.505

Cell Line	relative viability ([1]; first compound 0.005 µM)	relative viability ([1]; first compound 0.01581 µM)	relative viability ([1]; first compound 0.05 µM)	relative viability ([1]; first compound 0.1581 µM)	relative viability ([1]; first compound 0.5 µM)	relative viability ([2]; first compound 0.02 µM)	relative viability ([2]; first compound 0.06325 µM)	relative viability ([2]; first compound 0.2 µM)	relative viability ([2]; first compound 0.6325 µM)	relative viability ([2]; first compound 2 µM)	relative viability ([3]; first compound 0.01 µM)	relative viability ([3]; first compound 0.03162 µM)	relative viability ([3]; first compound 0.1 µM)	relative viability ([3]; first compound 0.3162 µM)	relative viability ([3]; first compound 1 µM)	relative viability ([4]; first compound 0.02 µM)	relative viability ([4]; first compound 0.06325 µM)	relative viability ([4]; first compound 0.2 µM)	relative viability ([4]; first compound 0.6325 µM)	relative viability ([4]; first compound 2 µM)
NCI-H838	0.751	0.747	0.661	0.707	0.681	0.73	0.807	0.664	0.706	0.614	1.01	0.89	1.06	1.08	0.914	0.533	0.579	0.617	0.542	0.646
NCI-H520	0.532	0.858	0.667	0.826	0.707	0.608	0.623	0.527	0.45	0.569	1.09	–	0.791	0.706	0.373	0.563	0.58	0.481	0.518	0.548
HOP-62	0.49	0.626	0.453	0.685	0.642	0.624	0.667	0.847	0.918	0.663	0.777	0.792	1.11	1.05	0.741	0.689	0.664	0.487	0.728	0.703
NCI-H1651	0.555	0.538	0.572	0.609	0.559	0.915	0.883	0.893	0.897	0.839	1.03	0.772	1	0.93	0.817	0.304	0.299	0.325	0.353	0.311
NCI-H460	–	0.651	0.721	0.782	0.354	1.02	0.992	1.1	1.09	0.98	0.478	0.42	0.589	0.443	0.465	0.498	0.48	0.544	0.49	0.48
NCI-H1734	0.7	0.785	0.758	1.06	0.78	0.976	0.869	0.944	0.904	0.926	0.754	0.654	0.773	0.813	0.596	0.403	0.369	0.32	0.379	0.39
NCI-H1915	–	0.515	0.519	0.519	0.512	0.947	0.885	1.07	0.973	0.943	1.07	0.997	1.11	1.04	0.788	0.366	0.353	0.387	0.372	0.365
NCI-H661	0.81	0.85	0.73	0.831	0.862	0.828	0.943	0.769	0.807	0.702	0.792	0.609	0.794	0.575	0.595	0.265	0.284	0.269	0.279	0.271
NCI-H2228	0.449	0.629	0.83	0.646	0.664	0.775	0.942	–	1.03	0.814	0.795	0.802	0.625	0.563	0.491	0.263	0.281	0.384	0.294	0.303
NCI-H1975	0.712	0.743	0.747	0.834	0.571	0.359	0.35	0.376	0.355	0.383	0.714	0.634	0.686	0.673	0.538	0.391	0.398	0.391	0.389	0.403
NCI-H2087	0.338	0.666	0.353	1	0.435	0.813	0.761	0.859	0.857	0.833	1.02	1.02	0.979	1.05	0.783	0.415	0.45	0.457	0.447	0.44
LCLC-97TM1	0.608	0.694	0.724	0.725	0.624	0.827	0.641	0.771	0.566	0.558	0.261	0.266	0.235	0.233	0.15	0.457	0.42	0.441	0.393	0.422
EPLC-272H	–	0.519	0.451	0.395	0.178	0.983	0.764	0.892	0.995	0.909	0.985	0.887	0.92	0.926	0.845	0.326	–	0.294	0.273	0.301
CAL-12T	0.572	0.873	0.973	0.814	0.725	1.03	1.13	0.865	0.82	0.537	1.38	0.984	1.42	1.11	1.21	0.536	0.539	0.446	0.411	0.242
NCI-H1755	0.803	0.88	0.74	0.91	0.713	0.998	1.04	1.07	1	0.959	0.96	0.944	0.956	0.972	0.844	0.67	0.593	0.671	0.38	0.609
H3255	0.792	0.729	0.745	0.988	0.84	0.972	0.71	0.632	0.367	0.233	0.71	0.552	0.177	0.375	0.136	0.427	0.359	0.35	0.303	0.192
